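Dose response: 5 concentrations. Exposure: 48 h. Format: 96-well plates. Endpoint: linear interpolation; highest concentration if not reached. At the TGI there is no net growth.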
Assays:
Assay in all cases: NCI-60 cell line screen, 48 h
786-0 renal = system: 786-0 renal
A498 renal = system: A498 renal
A549 NSCLC = system: A549 NSCLC
ACHN renal = system: ACHN renal
BT-549 breast = system: BT-549 breast
CAKI-1 renal = system: CAKI-1 renal
CCRF-CEM leukemia = system: CCRF-CEM leukemia
COLO 205 colon = system: COLO 205 colon
DU-145 prostate = system: DU-145 prostate
EKVX NSCLC = system: EKVX NSCLC
HCC-2998 colon = system: HCC-2998 colon
HCT-116 colon = system: HCT-116 colon
HCT-15 colon = system: HCT-15 colon
HL-60(TB) leukemia = system: HL-60(TB) leukemia
HOP-92 NSCLC = system: HOP-92 NSCLC
HS 578T breast = system: HS 578T breast
IGROV1 ovarian = system: IGROV1 ovarian
K-562 leukemia = system: K-562 leukemia
KM12 colon = system: KM12 colon
LOX IMVI melanoma = system: LOX IMVI melanoma
M14 melanoma = system: M14 melanoma
MALME-3M melanoma = system: MALME-3M melanoma
MCF7 breast = system: MCF7 breast
MDA-MB-231 breast = system: MDA-MB-231 breast
MDA-MB-435 = system: MDA-MB-435
MDA-N = system: MDA-N
MOLT-4 leukemia = system: MOLT-4 leukemia
NCI-H226 lung = system: NCI-H226 lung
NCI-H460 lung = system: NCI-H460 lung
NCI-H522 lung = system: NCI-H522 lung
NCI/ADR-RES ovarian = system: NCI/ADR-RES ovarian
OVCAR-3 ovarian = system: OVCAR-3 ovarian
OVCAR-4 ovarian = system: OVCAR-4 ovarian
OVCAR-5 ovarian = system: OVCAR-5 ovarian
OVCAR-8 ovarian = system: OVCAR-8 ovarian
PC-3 prostate = system: PC-3 prostate
RPMI-8226 leukemia = system: RPMI-8226 leukemia
RXF 393 renal = system: RXF 393 renal
SF-268 CNS = system: SF-268 CNS
SF-295 CNS = system: SF-295 CNS
SF-539 CNS = system: SF-539 CNS
SK-MEL-2 melanoma = system: SK-MEL-2 melanoma
SK-MEL-28 melanoma = system: SK-MEL-28 melanoma
SK-MEL-5 melanoma = system: SK-MEL-5 melanoma
SN12C renal = system: SN12C renal
SNB-19 CNS = system: SNB-19 CNS
SNB-75 CNS = system: SNB-75 CNS
SR leukemia = system: SR leukemia
SW-620 colon = system: SW-620 colon
T-47D breast = system: T-47D breast
TK-10 renal = system: TK-10 renal
U251 CNS = system: U251 CNS
UACC-257 melanoma = system: UACC-257 melanoma
UACC-62 melanoma = system: UACC-62 melanoma
UO-31 renal = system: UO-31 renal
HOP-62 NSCLC = system: HOP-62 NSCLC
HT29 colon = system: HT29 colon
NCI-H23 lung = system: NCI-H23 lung
SK-OV-3 ovarian = system: SK-OV-3 ovarian

Measured: TGI

CCOC(=O)c1nc2cc(C(F)(F)F)ccc2nc1Oc1ccc(C(=O)OC)cc1
not listed: HOP-62 NSCLC | HT29 colon | NCI-H23 lung | SK-OV-3 ovarian
> 100 µM: all other assays above

O=[N+]([O-])c1cc(C(F)(F)F)ccc1S(=O)(=O)N[C@@H]1CCCC[C@H]1NS(=O)(=O)c1ccc(C(F)(F)F)cc1[N+](=O)[O-]
> 36 µM: K-562 leukemia
5.2 µM: MCF7 breast
> 26.2 µM: SR leukemia
> 23.2 µM: UO-31 renal
7.5 µM: IGROV1 ovarian
9.38 µM: SF-295 CNS
3.56 µM: SF-539 CNS
> 75.7 µM: DU-145 prostate
53.8 µM: SW-620 colon
12.6 µM: SN12C renal
7.87 µM: CCRF-CEM leukemia
93.3 µM: EKVX NSCLC
6.92 µM: NCI-H23 lung
> 31.6 µM: SNB-19 CNS
9.88 µM: SK-MEL-2 melanoma
> 31.3 µM: A549 NSCLC
8.27 µM: HS 578T breast
71.7 µM: SK-OV-3 ovarian
8.05 µM: MALME-3M melanoma
> 28.1 µM: RXF 393 renal
22.7 µM: HT29 colon
30.9 µM: HOP-62 NSCLC
> 42.2 µM: 786-0 renal
3.24 µM: LOX IMVI melanoma
12.1 µM: KM12 colon
3.74 µM: HL-60(TB) leukemia
> 46.6 µM: NCI-H226 lung
10.1 µM: HCT-15 colon
8.15 µM: SK-MEL-5 melanoma
33.3 µM: SK-MEL-28 melanoma
> 22.3 µM: RPMI-8226 leukemia
11.2 µM: ACHN renal
> 23.7 µM: A498 renal
13.4 µM: UACC-62 melanoma
> 50.7 µM: T-47D breast
10 µM: CAKI-1 renal | NCI/ADR-RES ovarian
8.02 µM: MDA-MB-231 breast
20.1 µM: HCT-116 colon
17.1 µM: U251 CNS
8.31 µM: HOP-92 NSCLC
8.95 µM: M14 melanoma
8.07 µM: MDA-MB-435
7.46 µM: SNB-75 CNS
> 39.9 µM: HCC-2998 colon
4.76 µM: NCI-H522 lung
20.2 µM: OVCAR-8 ovarian
7.07 µM: OVCAR-3 ovarian
14.1 µM: PC-3 prostate
21.6 µM: MDA-N
6.77 µM: COLO 205 colon
7.24 µM: SF-268 CNS
29.2 µM: OVCAR-4 ovarian
8.16 µM: BT-549 breast
not listed: MOLT-4 leukemia
> 100 µM: all other assays above

Nc1nc(NCC2(CO)CC(CCc3ccccc3)C2)cc(=O)[nH]1 (stereo not given)
67.8 µM: UO-31 renal
80.6 µM: SK-OV-3 ovarian
not listed: ACHN renal | SF-539 CNS | TK-10 renal
> 100 µM: all other assays above

O=C(Oc1ccc(OC(Oc2ccccc2)c2ccccc2)cc1)c1ccccc1 (stereo not given)
24.1 µM: RPMI-8226 leukemia
24.4 µM: NCI-H23 lung
18.8 µM: MALME-3M melanoma
23.4 µM: IGROV1 ovarian
36.6 µM: SK-MEL-2 melanoma
29.2 µM: HCT-116 colon
25.8 µM: SF-295 CNS
23.8 µM: A498 renal
19 µM: HOP-62 NSCLC
> 100 µM: NCI-H460 lung | NCI-H522 lung | OVCAR-5 ovarian | RXF 393 renal | T-47D breast | U251 CNS
31 µM: SK-MEL-28 melanoma
23 µM: SF-268 CNS
22 µM: HCC-2998 colon
not listed: CAKI-1 renal | HCT-15 colon | HOP-92 NSCLC
> 31.6 µM: all other assays above

— PubChem BioAssay (NCI)
